In publication PMC8589421, “Impact of Type II LRRK2 inhibitors on signaling and mitophagy” (Biochemical Journal, 2021):

Assays:
[1] = system: basal mitophagy, wild type MEFs; assay: mito-QC basal mitophagy in wild-type primary MEFs; type: cell-based, mouse; details: 24 h, 30–300 nM GZD-824, GSK3357679A 100 nM positive control
Procedure: To assess mitophagy, wild type, G2019S knock in, and LRRK2 knock out primary mouse embryonic fibroblasts (MEFs) were derived, from time-mated pregnant females at E12.5 as previously described. Briefly, cells were plated on glass coverslips and incubated with DMEM (Gibco, 11960-044) supplemented with 10% FBS, 2 mM L-Glutamine (Gibco, 2503-081), 1% non-essential amino acids (Gibco, 11140-035), 1% Antibiotics (Penicillin/Streptomycin 100 U/ml penicillin and 100 µg/ml streptomycin; Gibco), and 150 µM β-Mercaptoethanol (Gibco, 21985-023) at 37°C under a humidified 5% CO2 atmosphere. […] GSK3357679A 100 nM (Ding et al., in prep) was used as a positive control. At the end of the treatment, MEFs were briefly washed twice in DPBS (Gibco, 14190-094), and fixed in 3.7% Paraformaldehyde pH 7.00 (Sigma, P6148), 200 mM HEPES, for 20 min. Cells were then washed two times with DMEM, 10 mM HEPES, and then incubated for 10 min with DMEM, 10 mM HEPES. […] Images were acquired using a Nikon Eclipse Ti-S fluorescence microscope with a 63× objective. Images were analyzed using the mito-QC counter as previously described. Experiments were performed in 3–4 independent experiments and data was analyzed with a one-way ANOVA followed by a Dunnett's multiple comparison test using the GraphPad Prism software (version 8.4.3 (686)).

[2] = system: Rab10 phosphorylation, LRRK2[A2016T]; assay: Rab10 Thr73 phospho-immunoblot in inhibitor resistant LRRK2[A2016T] knock-in MEFs; type: cell-based, mouse; details: 2 h, up to 3 µM
Procedure: Wild-type and homozygous LRRK2 [R1441C] (Jax, stock number: 009346), LRRK2[G2019S] Taconic, (model 13940) and LRRK2 [A2016T] (Jax, stock number: 021828)[7] knock-in MEF cells were isolated from littermate-matched mouse embryos on a C57BL/6J background at day E12.5 as described previously. MEFs were grown in Dulbecco's modified Eagle medium (DMEM GIBCO, #11960-085) containing 10% (by vol) fetal bovine serum (FBS), 2 mM L-glutamine, 100 U/ml penicillin, and […] streptomycin supplemented with non-essential amino acids and 1 mM sodium pyruvate. Human embryonic kidney 293 (HEK293) (#ATCC CRL-1573) and HeLa (#ATCC CCL-2) cells were purchased from American Tissue Culture Collection (ATCC) and cultured in DMEM containing 10% (by vol) FBS, 2 mM L-glutamine, 100 U/ml penicillin, and […] streptomycin. All cells were grown at 37°C, 5% (by vol) CO2 in a humidified atmosphere and regularly tested for mycoplasma contamination.
Inhibitors were dissolved in dimethyl sulfoxide (DMSO) (Sigma, #D2650). The inhibitors were diluted 1000× into cell medium. The equivalent volume of DMSO was added to the minus inhibitor controls. Experiments were performed in six-well plates, 10 cm dishes or 15 cm dishes depending on the amount of cell extract required.
Cells were lysed in an ice-cold lysis buffer containing 50 mM Tris–HCl, pH 7.4, 1% (by vol) Triton X-100, 10% (by vol) glycerol, 150 mM NaCl, 1 mM sodium orthovanadate, 50 mM NaF, 10 mM 2-glycerophosphate, 5 mM sodium pyrophosphate, 1 µg/ml microcystin-LR, and cOmplete EDTA-free protease inhibitor cocktail (Roche, #11836170001). Lysates were incubated on ice for 30 min and clarified by centrifugation at 20 800×g at 4°C for 20 min. Supernatants were quantified by Bradford assay (Bio-Rad Protein Assay Dye Reagent Concentrate #5000006) and samples prepared in 1× lithium dodecyl sulfate sample buffer final concentration (NuPage LDS Sample buffer 4× Invitrogen, #NP0008). When not deployed immediately, lysates were snap-frozen in liquid nitrogen and stored at −80°C until use. […]

LRRK2 14-3-3 binding = system: T1, LRRK2 14-3-3 binding; assay: Analysis of 14-3-3 binding in HEK293 cells overexpressing wild-type LRRK2; type: cell-based, human; details: 5 μM GZD-824 for 4 h, 1 μM GSK3357679A
T1 construct: host or cells: HEK293
Procedure: This was undertaken as described previously. Briefly, wild-type FLAG-LRRK2 was transiently expressed in HEK293 cells with HA-Rab29. Twenty-four hours post-transfection cells were lysed with lysis buffer and snap frozen. LRRK2 was immunoprecipitated from 4 mg of lysate using 20 μl anti-FLAG-M2 agarose beads (Sigma, #A2220) for 2 h in rotation at +4°C. Immunoprecipitates were washed once with lysis buffer supplemented with 0.5% (by vol) Nonidet P-40 (instead of Triton X-100) and 0.5 M NaCl followed by two washes. Samples were eluted in 2× LDS sample buffer (20 µl per 10 µl of resin) and heated at 70°C for 10 min. After centrifugation through 0.22 µm Spin X filter, the eluted protein was subjected to immunoblotting with the indicated antibodies. An amount of 10 μl of the final reaction mixture was needed for the detection of binding of endogenous 14-3-3 and 1 µl for detection of LRRK2.

For `Cc1ccc(C(=O)Nc2ccc(CN3CCN(C)CC3)c(C(F)(F)F)c2)cc1C#Cc1cnc2[nH]ncc2c1` [GZD-824], the “stimulation of basal mitophagy” value [1] was about 2 fold, the “effect of A2016T mutation on inhibition of Rab10 phosphorylation” value [2] was “markedly blocked” and the “impact on 14-3-3 binding to LRRK2” value (LRRK2 14-3-3 binding) was “no significant impact”.
